A short description of data set [1]: Solubility test of dutasteride and tadalafil in oils. It counts as physicochemical. As to conditions: for solubility in a general oil: castor oil or soybean oil; for Solubility / solubility at 24 h: room temperature, stirring for 24 hours; for solubility at 24 h: oil or lipid, thermodynamic from solid. On the procedure:
In order to determine the solubility of dutasteride and tadalafil in oils, the solubilities to soybean oil, castor oil, glycerol monooleate, glycerol caprylate/caprate, propylene glycol monocaprylate and propylene glycol monolaurate were measured. A magnetic bar was placed in a 10 ml, vial, and 3 ml, of oil was added thereto. Then, while the mixture was stirred at room temperature, 100 mg of the main component was added thereto and the mixture was stirred at 500 rpm or higher. After stirring for 24 hours, only a supernatant was taken by a centrifugal separator, and an amount of the main component dissolved in the oil phase was quantitated by using a liquid chromatograph.

Assay in data set [2]: as above
Format: physicochemical. As to conditions: room temperature, stirring for 24 hours; for solubility at 24 h: oil or lipid, thermodynamic from solid.

[3] abbreviates: in glycerol caprylate/caprate, glycerol monooleate, propylene glycol monocaprylate and propylene glycol monolaurate.
[4] abbreviates: in glycerol fatty acid ester derivative or propylene glycol fatty acid ester derivative as oil component.

Values after ≈ are worked out from the molar mass of the structure shown.

Consider “17β-N-(2,5-bis (trifluoromethyl)) phenylcarbamoyl-4-aza-5α-androst-1-en-3-one [dutasteride]”, for which, in data set [1], the “solubility in a general oil” value is given as “low”. Besides, the solubility of dutasteride is no less than 2500 µg/mL in data set [1] (setting [3]) and no less than 1000 µg/mL in data set [1] (setting [4]). Moreover, the Solubility in data set [1] (solvent Castor oil) was 1500 µg/mL; in data set [1] (solvent Glycerol caprylate/caprate), 14340 µg/mL; in data set [1] (solvent Glycerol monooleate) it was 4580 µg/mL; in data set [1] (solvent Propylene glycol dicaprate) it was 770 µg/mL; in data set [1] (solvent Propylene glycol dicaprylate), 1130 µg/mL; in data set [1] (solvent Propylene glycol monocaprylate), 20980 µg/mL. Besides, the Solubility in data set [1] (solvent Propylene glycol monolaurate) worked out at 9340 µg/mL; in data set [2] (solvent Glycerol tricaprylate) it was 840 µg/mL.
For `CN1CC(=O)N2[C@H](c3ccc4c(c3)OCO4)c3[nH]c4ccccc4c3C[C@@H]2C1=O` [tadalafil, 6R-trans-6-(1,3-benzodioxol-5-yl)-2,3,6,7,12,12a-hexahydro-2-methyl-pyrazino [1′,2′:1,6] pyrido[3,4-b]indole-1,4-dione], in data set [1], the “solubility in a general oil” value is “low”. In addition, the solubility at 24 h in data set [1] (glycerol caprylate/caprate (oil), solvent Glycerol caprylate/caprate) was determined as 4130 µg/mL (≈ 10600 µM); in data set [1] (glycerol monooleate (oil), solvent Glycerol monooleate), 1110 µg/mL (≈ 2850 µM); in data set [1] (solvent Castor oil) it was 1030 µg/mL (≈ 2650 µM); in data set [1] (solvent Soybean oil), 240 µg/mL (≈ 616 µM); in data set [1] (propylene glycol dicaprate (oil), solvent Propylene glycol dicaprate), 270 µg/mL (≈ 693 µM); in data set [1] (propylene glycol monocaprylate (oil), solvent Propylene glycol monocaprylate), 4090 µg/mL (≈ 10500 µM). For the same compound, the solubility at 24 h in data set [1] (propylene glycol monolaurate (oil), solvent Propylene glycol monolaurate) was 1030 µg/mL (≈ 2650 µM); in data set [2] (glycerol tricaprylate (oil), solvent Glycerol tricaprylate), 400 µg/mL (≈ 1030 µM); in data set [2] (propylene glycol dicaprylate (oil), solvent Propylene glycol dicaprylate) it was 440 µg/mL (≈ 1130 µM). Moreover, the “solubility of tadalafil relative to that of dutasteride” value in data set [1] (setting [3]) is on record as “⅓”. In addition, the “solubility of tadalafil relative to the solubility of dutasteride” value in data set [1] (setting [4]) is “½”.

For orientation: Solubility means the concentration that dissolves in the medium under given conditions. High values mean a readily soluble substance, low ones a poorly soluble substance. In general, solubility refers to how much of the substance goes into solution per volume.

The values are drawn from patent publication US20190216827A1, “Composite Formulation of Dutasteride and Tadalafil Comprising Glycerol Fatty Acid Ester Derivative or Propylene Glycol Fatty Acid Ester Derivative and Oral Capsule Formulation Comprising the Same” (Yuyu Pharma, Inc., priority 2016, published 2019).
